In patent US6375944B1, “Methods and compositions for enhancing the immunostimulatory effect of interleukin-12” (The Wistar Institute of Anatomy and Biology, priority 1998, dated 2002):
Several values for one entry are separate records, joined by “and”; a condition that tells them apart may be missing. Identical values can stand only once.

Columns and labels:
splenocytes = experiment: Mitogen and alloantigen stimulation of splenocytes (3H-thymidine incorporation), whole or adherent/nonadherent cocultures; format: cell-based, mice; design: Effect on mitogenesis / inhibition of mitogenic responses: dose or concentration left out as unconfirmed
Method: The mitogen and alloantigen stimulation of splenocytes assay was performed as follows: In vitro mitogenic stimulation of splenocytes with […] Con A or 100 U/ml rmIL-12 was performed as described [Kurzawa, cited above]. Proliferative responses to allogeneic antigens (mixed lymphocyte reaction, MLR) was measured when splenocytes from the mice were stimulated with 10^5 mitomycin treated A/J splenocytes. Splenocyte fractionation was performed by allowing 10^5 splenocytes to adhere for 90 minutes in 96 well plates, after which the nonadherent cells were removed and cocultured with adherent cells from different wells for assay. When added, antibodies (XMG6 for IFNγ, XT22 for TNFα, AE5 for IL-10 and C17.8 for IL-12 ) were used at […] final concentration. After 72 hours exposure to mitogen, cultures were pulsed with 1 μCi^3H-thymidine for 16 hours, cells were harvested and ^3H incorporation was measured by scintillation counting. Supernatants from cultures assayed for IFNγ by radioimmunoassay (RIA) (using antibodies AN18 and XMG6 [Wysocka, M. et al. 1995 Eur. J. Immunol. 25:672] were harvested 24 or 72 hours after stimulation.
A. Splenocytes from rmIL-12- and PBS-treated C57BL/6 mice were fractioned by adherence to 96 well plastic plates for 90 minutes. The cells were reconstituted in various combinations of adherent and nonadherent cells by overlaying nonadherent cells on the adherent cells. These cocultures were then stimulated with either 2.5 μg/ml Con A, 100 U/ml IL-12, or 10^5 mitomycin C treated A/J (H-2A) splenocytes, as described in the mitogen/alloantigen assay of Example 1.
B. Cocultures were established from splenic adherent and nonadherent cells of PBS-treated mice or from the adherent cells of rmIL-12-treated mice and nonadherent cells of PBS-treated mice. Antibodies XMG6 (to IFNγ), XT22 (to TNFα), AE5 (to IL-10) and C17.8 (to IL-12 ) were added to a final concentration of […] in cocultures containing adherent cells from spleen of rmIL-12-treated mice, also according to the assay described in Example 1.
(§1) Cocultures were established from splenic adherent and nonadherent cells of PBS-treated mice or from the adherent cells of rmIL-12-treated mice and nonadherent cells of PBS-treated mice. Antibodies XMG6 (to IFNγ), XT22 (to TNFα), AE5 (to IL-10) and C17.8 (to IL-12) were added to a final concentration of […] in cocultures containing adherent cells from spleen of rmIL-12-treated mice. An inhibitor of inducible nitric oxide synthase (iNOS), L-NMMA (Sigma), was added to cocultures of adherent cells from rmIL-12 treated mice and nonadherent cells from control mice at a final concentration of […]. Alternatively, D-NMMA (Sigma), a noninhibitory isoform of L-NMMA, was added to other cocultures as a control.

NO production = NO production measured as nitrite in stimulated cell supernatants by the Greiss assay; format: cell-based; design: dose or concentration left out as unconfirmed; conditions: cocultures of adherent cells from rmIL-12 treated mice and nonadherent control cells; compared to D-NMMA; two independent measurements
Method: as §1
NO production was measured as nitrite concentration in stimulated cell supernatants by the Greiss assay [Green, L. C. et al, Anal. Biochem 126:131 (1982)]. Supernatant (100 μl) was added to 96 well plates; 100 μl of a 1:1 mixture of 1% sulfanilamide dihydrochloride in 2.5% H3PO4 and 0.1% naphthylethylenediamine dihydrochloride in 2.5% H3PO4 was then added to samples. Plates were incubated at room temperature for 10 minutes and A540 was determined using a microplate reader with reference to sodium nitrite standard curves. S-nitroso-N-acetyl-penillamine (SNAP, Sigma), an NO donor, was used as a acellular source of NO and was added to splenocytes from HKB-vaccinated C57BL/6 mice.

SCK cells [1] = experiment: Tumor cell rechallenge in mice with established SCK immunity; format: in vivo, A/J mice; conditions: for Prevention of rmIL-12 impairment of immune rejection: given with rmIL-12 therapy, established SCK immunity; for mice that developed tumors: rmIL-12 treated mice with established SCK immunity, data not shown
Text: Thus, L-NAME prevents rmIL-12 suppression of established antitumor immune responses.

SCK cells [2] = experiment: Irradiated wild-type SCK cell vaccination followed by SCK tumor cell challenge; format: in vivo, A/J mice; conditions: for mice that developed tumors: given with irradiated SCK cells and rmIL-12, challenged on day 14
Text: Female A/J mice (8 mice per group) were vaccinated with 10^6 irradiated SCK cells and received either PBS, rmIL-12, rmIL-12+L-NAME or rmIL-12 and D-NAME on days 0-4 and 7-11. Mice were challenged fourteen days after vaccination with 2.5×10^4 SCK cells in the opposite flank. Tumorigenesis was scored daily, as described above.

SCK cells [3] = experiment: SCK.GM cell vaccination followed by SCK tumor cell challenge; format: in vivo, A/J mice; conditions: for Effect on SCK.GM-induced protection: mice not treated with rmIL-12, data not shown
Text: A. Female A/J mice were vaccinated with 10^6 irradiated SCK.GM cells suspended in PBS at 10^7 trypan blue-excluding cells/ml. Cells were irradiated with 6000 rads from a ^137Cs source, and mice were vaccinated with 10^6 cells s.c. (day 0). […] Vaccinated and naive A/J mice were challenged fourteen days after vaccination with 2.5×10^4 trypan blue-excluding SCK cells in the opposite flank to assay for the presence of tumor immunity. Tumorigenesis was scored daily.

SCK tumors = experiment: Antitumor activity of rmIL-12 against SCK tumors (tumorigenesis scored daily); format: in vivo, A/J mice
Method: Female A/J mice were injected with 2.5×10^4 SCK cells and either PBS, rmIL-12, rmIL-12+L-NAME or rmIL-12 and D-NAME on days 0-4 and 7-11. Tumorigenesis was scored daily, as described above.

[4] = SCK-vaccinated mice, at 28 days, rmIL-12 alone, or L-NAME/D-NAME given with rmIL-12

Row | Compound | Prevention of rmIL-12 impairment of immune rejection (SCK cells [1]) | mice that developed tumors (SCK cells [1]) | level of protection (SCK cells [2]; [4]) | mice that developed tumors (SCK cells [2]) | Effect on SCK.GM-induced protection (SCK cells [3]) | further results
1 | S-nitroso-N-acetyl-penillamine [SNAP, reference compound] |  |  |  |  |  | inhibition of mitogenic responses (splenocytes; splenocytes from HKB-vaccinated C57BL/6 mice, cultures with NO levels as low as): 83-98%
2 | CNC(=N)NCCC[C@H](N)C(=O)O [L-NMMA, N^G-monomethyl-L-arginine] |  |  |  |  |  | reduction of NO levels in the culture supernatant (NO production): 58% and 94%; Effect on mitogenesis (splenocytes; cocultures of adherent cells from rmIL-12 treated mice and nonadherent control cells, compared to D-NMMA): restored mitogenesis
3 | COC(=O)[C@H](N)CCCNC(=N)N[N+](=O)[O-] [D-NAME, N^ω-nitro-D-arginine methyl ester] | not | 75% | 50% | 75% | had no effect | mice that developed tumors (SCK cells [3]; SCK.GM vaccinated, given with rmIL-12, challenge 14 days after vaccination): 75%
4 | COC(=O)[C@@H](N)CCCNC(=N)N[N+](=O)[O-] [L-NAME, N^ω-nitro-L-arginine methyl ester] | prevented this impairment of immune rejection | 25% | 50% | 38% | had no effect | level of protection (SCK cells [2]; SCK-vaccinated, given with rmIL-12, at 14 days): 62%; Prevention of rmIL-12 impairment of SCK.GM vaccine protection (SCK cells [3]; given with rmIL-12 days 0-4 and 7-11, challenge 14 days after vaccination): prevented this impairment; median days to tumor appearance (SCK tumors; 2.5×10^4 SCK cells, treatment days 0-4 and 7-11, L-NAME given with rmIL-12, 9 days without rmIL-12): 17 days; delay of tumor appearance vs. mice given rmIL-12 alone or with D-NAME (SCK tumors; L-NAME given with rmIL-12): 3 days; Effect on SCK tumorigenesis (SCK tumors; given without rmIL-12, data not shown): had no effect on SCK tumorigenesis; delay of tumor appearance vs. untreated mice (SCK tumors; treatment started on day of SCK cell injection, L-NAME given with rmIL-12): 8 days
